Counter-ions that a name gives are not always drawn. Like-named read-outs stand apart in the source and are kept apart here.
What was measured:
[1] = target: T1, HIV reverse transcriptase with the Y181C mutation (Human immunodeficiency virus type 1 group M subtype B, UniProt P04585, Y768C); assay: ECL assay for inhibition of mutant HIV reverse transcriptase (Y181C); assay type: biochemical, HIV-1
T1 construct: made in house
Experimental: (§1) 100 μL reaction mixtures were initiated with a combination of primer-template substrate (10 nM final concentration) and dNTPs (0.6 μM dNTPs, 1.25 μM BrdUTP). The heterodimeric nucleic acid substrate was generated by annealing the DNA primer pD500 (described in Shaw-Reid et al., J. Biol. Chem., 278: 2777-2780; obtained from Integrated DNA Technologies) to t500, a 500 nucleotide RNA template created by in vitro transcription (see Shaw-Reid et al., J. Biol. Chem., 278: 2777-2780). After 1 hour incubation at 37° C., reactions were quenched by 10 μL of 1 N NaOH. Microtiter plates were incubated for an additional 30 minutes at room temperature and then neutralized with 10 μL of 1 N HCl. A mixture of detection buffer containing ruthenylated anti-BrdU antibody and streptavidin coated magnetic beads were added to the plate and incubated at room temperature for 1.5 hours prior to quantification via electrochemiluminescence instrument.
(§2) Analogous assays were conducted substituting mutant HIV strains to determine the […] inhibition of compounds of the present invention against mutant HIV reverse transcriptase. In one strain the reverse transcriptase has the Y181C mutation and in the other strain the reverse transcriptase has the K103N mutation. The mutations were generated with the […] site-directed mutagenesis kit (Stratagene).

T-lymphoid cells = assay type: cell-based
Experimental: Cytotoxicity was determined by microscopic examination of the cells in each well in the spread assay, wherein a trained analyst observed each culture for any of the following morphological changes as compared to the control cultures: pH imbalance, cell abnormality, cytostatic, cytopathic, or crystallization (i.e., the compound is not soluble or forms crystals in the well). The toxicity value assigned to a given compound is the lowest concentration of the compound at which one of the above changes is observed.

[2] = test system: HIV strain containing the Y181C mutation; assay: Spread assay: inhibition of acute HIV-1 infection of T-lymphoid cells (Y181C); assay type: cell-based; conditions: Human immunodeficiency virus 1, T-lymphoid, read-out: Spread (Y181C) CIC95 (10% FBS)
Experimental: (§3) Assays for the inhibition of acute HIV-1 infection of T-lymphoid cells (alternatively referred to herein as the “spread assay”) were conducted in accordance with Vacca, J. P. et al., Proc. Natl. Acad. Sci. USA 1994, 91: 4096. The assays tested for inhibition of wild type HIV-1 and of HIV strains containing the Y181C or K103N mutation. […] Table C also reports the CIC95 values of certain of the title compounds of Examples 1-25 obtained in the assays employing the Y181C mutant strain and the K103N mutant strain.

[3] = target: T2, HIV reverse transcriptase with the K103N mutation (Human immunodeficiency virus type 1 group M subtype B, UniProt P04585, K690N); assay: ECL assay for inhibition of mutant HIV reverse transcriptase (K103N); assay type: biochemical, HIV-1
T2 construct: made in house
Experimental: as §1, §2

[4] = target: HIV-1 RT enzyme (wild-type) (Human immunodeficiency virus type 1 group M subtype B, UniProt P04585); assay: ECL assay for inhibition of HIV reverse transcriptase (WT); assay type: biochemical
Experimental: as §1

[5] = test system: HIV strain containing the K103N mutation; assay: Spread assay: inhibition of acute HIV-1 infection of T-lymphoid cells (K103N); assay type: cell-based; conditions: Human immunodeficiency virus 1, T-lymphoid, read-out: Spread (K103N) CIC95 (10% FBS)
Experimental: as §3

wild type HIV-1 = assay: Spread assay: inhibition of acute HIV-1 infection of T-lymphoid cells (WT); assay type: cell-based; conditions: Human immunodeficiency virus 1, T-lymphoid, read-out: Spread (WT) CIC95 (10% FBS)
Experimental: as §3

[6] = Y181C mutant RT, read-out: ECL Assay (Y181C) IC50
[7] = K103N mutant RT, read-out: ECL Assay (K103N) IC50
[8] = wild-type HIV-1 RT, read-out: ECL Assay (WT) IC50

| Structure (SMILES) | IC50 [1, 6] | Cytotoxicity: no cytotoxicity at concentrations up to (T-lymphoid cells) | IC95 [2] | IC50 [3, 7] | IC50 [4, 8] | IC95 [5] | IC95 (wild type HIV-1; wild type HIV-1, 10% FBS) | IC50 [1] | IC50 [3] | IC50 [4] | IC95 (wild type HIV-1) |
| --- | --- | --- | --- | --- | --- | --- | --- | --- | --- | --- | --- |
| N#Cc1cc(Cl)cc(Oc2cc(CCc3n[nH]c4ncccc34)[nH]c(=O)c2Cl)c1 [Compound 3-8, 3-chloro-5-({3-chloro-2-oxo-6-[2-(1H-pyrazolo[3,4-b]pyridin-3-yl)ethyl]-1,2-dihydropyridin-4-yl}oxy)benzonitrile] | 3 nM | > 833 nM | 0.019 µM | 4.7 nM | 1.9 nM | 0.031 µM | 7 nM | – | – | – | – |
| NS(=O)(=O)c1ccc(NC(=O)Cn2ccc(C(F)(F)F)c(Oc3cc(Cl)cc(Br)c3)c2=O)c(Cl)c1 [Compound 16, N-[4-(aminosulfonyl)-2-chlorophenyl]-2-[3-(3-bromo-5-chlorophenoxy)-2-oxo-4-(trifluoromethyl)pyridin-1(2H)-yl]acetamide] | 2.6 nM | > 833 nM | 0.03 µM | 2.8 nM | 1.9 nM | 0.021 µM | 8 nM | – | – | – | – |
| N#Cc1cc(Cl)cc(Oc2nc(NCc3n[nH]c4nc(N)ccc34)c(Cl)cc2F)c1 [Compound 2-7, 3-[(6-{[(6-amino-1H-pyrazolo[3,4-b]pyridin-3-yl)methyl]amino}-5-chloro-3-fluoropyridin-2-yl)oxy]-5-chlorobenzonitrile] | 1 nM | > 833 nM | 0.014 µM | 0.6 nM | 0.5 nM | 0.028 µM | 3 nM | – | – | – | – |
| N#Cc1cc(Cl)cc(Oc2c(F)c(NCc3n[nH]c4ncccc34)nc(F)c2Cl)c1 [Compound 10-4, 3-chloro-5-({3-chloro-2,5-difluoro-6-[(1H-pyrazolo[3,4-b]pyridin-3-ylmethyl)amino]pyridin-4-yl}oxy)benzonitrile] | 0.6 nM | > 833 nM | 0.046 µM | 3.2 nM | 0.5 nM | 0.062 µM | 28 nM | – | – | – | – |
| N#Cc1cc(Cl)cc(Oc2cc(CCc3n[nH]c4ncccc34)[nH]c(=O)c2)c1 [Compound 3-9, 3-chloro-5-({2-oxo-6-[2-(1H-pyrazolo[3,4-b]pyridin-3-yl)ethyl]-1,2-dihydropyridin-4-yl}oxy)benzonitrile] | 11 nM | > 833 nM | 0.36 µM | 32 nM | 3.8 nM | 0.32 µM | 55 nM | – | – | – | – |
| O=c1c(Oc2cc(Cl)cc(Cl)c2)c(C(F)(F)F)ccn1Cc1n[nH]c2ncccc12 [Compound 19-4, 3-(3,5-dichlorophenoxy)-1-(1H-pyrazolo[3,4-b]pyridin-3-ylmethyl)-4-(trifluoromethyl)pyridin-2(1H)-one] | 1.5 nM | > 833 nM | 0.048 µM | 2.1 nM | 1.1 nM | 0.021 µM | 9 nM | – | – | – | – |
| N#Cc1cc(Cl)cc(Oc2nc(NCc3n[nH]c4ncccc34)c(Cl)cc2F)c1 [Compound 1-7, 3-chloro-5-({5-chloro-3-fluoro-6-[(1H-pyrazolo[3,4-b]pyridin-3-ylmethyl)amino]pyridin-2-yl}oxy)benzonitrile] | 0.4 nM | > 833 nM | 0.013 µM | 1.5 nM | 0.3 nM | 0.094 µM | 3 nM | – | – | – | – |
| N#Cc1cc(Cl)cc(Oc2c(C(F)(F)F)ccn(Cc3n[nH]c4ncccc34)c2=O)c1 [Compound 13-2, 3-chloro-5-{[2-oxo-1-(1H-pyrazolo[3,4-b]pyridin-3-ylmethyl)-4-(trifluoromethyl)-1,2-dihydropyridin-3-yl]oxy}benzonitrile] | 2 nM | > 833 nM | 0.008 µM | 2.6 nM | 1.6 nM | 0.006 µM | 4 nM | – | – | – | – |
| N#Cc1cc(Cl)cc(Oc2cc(Cc3n[nH]c4ncccc34)[nH]c(=O)c2Cl)c1 [Compound 24-7, 3-Chloro-5-{[3-chloro-2-oxo-6-(1H-pyrazolo[3,4-b]pyridin-3-ylmethyl)-1,2-dihydropyridin-4-yl]oxy}benzonitrile] | 1 nM | > 833 nM | 0.0066 µM | 1.7 nM | 0.9 nM | 0.013 µM | 2.4 nM | – | – | – | – |
| N#Cc1cc(Cl)cc(Oc2c(Cl)c(Cl)cn(Cc3n[nH]c4ncccc34)c2=O)c1 [Compound 23-2, 3-chloro-5-{[4,5-dichloro-2-oxo-1-(1H-pyrazolo[3,4-b]pyridin-3-ylmethyl)-1,2-dihydropyridin-3-yl]oxy}benzonitrile] | 1.3 nM | > 833 nM | 0.015 µM | 1.6 nM | 0.96 nM | 0.011 µM | 5 nM | – | – | – | – |
| N#Cc1cc(Cl)cc(Oc2c(C(F)(F)F)ccn(Cc3n[nH]c4nc(N)ccc34)c2=O)c1 [Compound 17-2, 3-{[3-(3-chloro-5-cyanophenoxy)-2-oxo-4-(trifluoromethyl)pyridin-1(2H)-yl]methyl}-1H-pyrazolo[3,4-b]pyridin-6-aminium trifluoroacetate] | – | > 833 nM | 0.042 µM | – | – | 0.011 µM | – | 2.4 nM | 3.1 nM | 1.9 nM | 6 nM |
